Laboratory results from patent US20250213555A1, “SUBSTITUTED TETRAHYDROFURAN ANALOGS AS MODULATORS OF SODIUM CHANNELS” (VERTEX PHARMACEUTICALS INCORPORATED, priority 2021, published 2025).

What follows are compounds tested against human Nav 1.8 (Homo sapiens, UniProt Q9Y5Y9) (assay: E-VIPR assay detecting and measuring Nav inhibition properties). Details: HEK cells expressing a truncated form of human Nav 1.8; compound numbers without "*" (not marked as run in the presence of human serum); read-out: measured IC50 value in the E-VIPR Assay.
Format: cell-based
In short: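 Nav inhibition was read by E-VIPR: cells were electrically stimulated while coumarin/oxonol FRET emissions were recorded. Cells were HEK expressing a truncated human Nav 1.8 and co-transduced with KIR2.1, and were assayed in 25% final human serum.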

human Nav 1.8, sequence (Q9Y5Y9 126-399 limits assumed): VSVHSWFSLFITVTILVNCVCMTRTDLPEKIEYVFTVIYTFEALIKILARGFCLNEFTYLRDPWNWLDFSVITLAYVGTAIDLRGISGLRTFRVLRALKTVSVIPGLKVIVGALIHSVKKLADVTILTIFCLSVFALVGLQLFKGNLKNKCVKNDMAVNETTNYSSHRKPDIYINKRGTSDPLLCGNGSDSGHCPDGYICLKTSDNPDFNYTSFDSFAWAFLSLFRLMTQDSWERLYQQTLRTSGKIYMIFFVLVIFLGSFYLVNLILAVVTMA
human Nav 1.8, sequence (Q9Y5Y9 660-890 limits assumed): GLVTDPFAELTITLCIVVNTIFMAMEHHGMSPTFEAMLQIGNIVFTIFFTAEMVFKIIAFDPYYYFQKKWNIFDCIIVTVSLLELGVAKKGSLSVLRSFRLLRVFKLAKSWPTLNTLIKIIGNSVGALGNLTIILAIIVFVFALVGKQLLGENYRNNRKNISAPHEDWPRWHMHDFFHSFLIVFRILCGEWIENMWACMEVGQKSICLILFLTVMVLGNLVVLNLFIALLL
human Nav 1.8, sequence (Q9Y5Y9 1148-1722 limits assumed): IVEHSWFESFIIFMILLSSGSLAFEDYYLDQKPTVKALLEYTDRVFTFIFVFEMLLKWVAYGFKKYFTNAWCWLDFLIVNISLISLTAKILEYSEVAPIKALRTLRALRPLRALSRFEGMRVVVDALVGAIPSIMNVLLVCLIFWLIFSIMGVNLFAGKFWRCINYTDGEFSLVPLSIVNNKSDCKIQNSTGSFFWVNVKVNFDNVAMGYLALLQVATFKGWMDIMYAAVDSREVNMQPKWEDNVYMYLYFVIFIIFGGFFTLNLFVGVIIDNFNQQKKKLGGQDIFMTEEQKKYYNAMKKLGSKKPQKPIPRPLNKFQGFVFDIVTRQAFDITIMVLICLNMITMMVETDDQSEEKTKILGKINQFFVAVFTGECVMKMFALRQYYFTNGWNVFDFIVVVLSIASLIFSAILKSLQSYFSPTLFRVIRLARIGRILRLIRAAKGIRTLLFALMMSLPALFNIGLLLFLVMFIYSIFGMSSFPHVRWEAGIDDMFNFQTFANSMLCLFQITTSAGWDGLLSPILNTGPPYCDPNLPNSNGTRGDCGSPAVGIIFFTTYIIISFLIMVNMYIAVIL

IC50 [nM]	SMILES
< 10	CON=C(C)COc1c([C@H]2[C@H](C(=O)Nc3ccnc(C(N)=O)c3)O[C@@](C)(C(F)(F)F)[C@H]2C)ccc(F)c1F [Compound 193, 4-((2R,3S,4S,5R)-3-(3,4-difluoro-2-(2-(methoxyimino)propoxy)phenyl)-4,5-dimethyl-5-(trifluoromethyl)tetrahydrofuran-2-carboxamido)picolinamide]
< 10	COc1c([C@H]2[C@H](C(=O)Nc3ccnc(C(=O)N4C[C@@H]5C[C@H]4CN5)c3)O[C@@](C)(C(F)(F)F)[C@H]2C)ccc(F)c1F [Compound 240, (2R,3S,4S,5R)-N-(2-((1S,4S)-2,5-diazabicyclo[2.2.1]heptane-2-carbonyl)pyridin-4-yl)-3-(3,4-difluoro-2-methoxyphenyl)-4,5-dimethyl-5-(trifluoromethyl)tetrahydrofuran-2-carboxamide]
10 to 100	COc1c([C@H]2[C@H](C(=O)Nc3ccnc(C(=O)N4CCN(C)C[C@@H]4C)c3)O[C@@](C)(C(F)(F)F)[C@H]2C)ccc(F)c1F [Compound 272, (2R,3S,4S,5R)-3-(3,4-difluoro-2-methoxyphenyl)-N-(2-((S)-2,4-dimethylpiperazine-1-carbonyl)pyridin-4-yl)-4,5-dimethyl-5-(trifluoromethyl)tetrahydrofuran-2-carboxamide]
< 10	COc1c([C@H]2[C@H](C(=O)Nc3ccnc(C(=O)N4C[C@H]5CCNC[C@H]54)c3)O[C@@](C)(C(F)(F)F)[C@H]2C)ccc(F)c1F [Compound 227, (2R,3S,4S,5R)-N-(2-((1S,6R)-3,8-diazabicyclo[4.2.0]octane-8-carbonyl)pyridin-4-yl)-3-(3,4-difluoro-2-methoxyphenyl)-4,5-dimethyl-5-(trifluoromethyl)tetrahydrofuran-2-carboxamide]
< 10	COc1c([C@H]2[C@H](C(=O)Nc3ccnc(C(=O)N4CCNC(C)(C)C4)c3)O[C@@](C)(C(F)(F)F)[C@H]2C)ccc(F)c1F [Compound 241, (2R,3S,4S,5R)-3-(3,4-difluoro-2-methoxyphenyl)-N-(2-(3,3-dimethylpiperazine-1-carbonyl)pyridin-4-yl)-4,5-dimethyl-5-(trifluoromethyl)tetrahydrofuran-2-carboxamide]
< 10	COc1c([C@H]2[C@H](C(=O)Nc3ccnc(C(N)=O)c3)O[C@@](C)(C(F)(F)F)[C@H]2C)cc(O)c(F)c1F [Compound 178, 4-((2R,3S,4S,5R)-3-(3,4-difluoro-5-hydroxy-2-methoxyphenyl)-4,5-dimethyl-5-(trifluoromethyl)tetrahydrofuran-2-carboxamido) picolinamide]
10 to 100	CO[C@H]1CCN(CCOc2c([C@H]3[C@H](C(=O)Nc4ccnc(C(N)=O)c4)O[C@@](C)(C(F)(F)F)[C@H]3C)ccc(F)c2F)C1 [Compound 129, 4-((2R,3S,4S,5R)-3-(3,4-difluoro-2-(2-((S)-3-methoxypyrrolidin-1-yl)ethoxy)phenyl)-4,5-dimethyl-5-(trifluoromethyl)tetrahydrofuran-2-carboxamido)picolinamide]
100 to 1000	C[C@H]1[C@@H](c2ccc(F)c(F)c2OCC2(CO)COC2)[C@H](C(=O)Nc2ccnc(C(N)=O)c2)O[C@@]1(C)C(F)(F)F [Compound 94, 4-((2R,3S,4S,5R)-3-(3,4-difluoro-2-((3-(hydroxymethyl)oxetan-3-yl)methoxy)phenyl)-4,5-dimethyl-5-(trifluoromethyl)tetrahydrofuran-2-carboxamido)picolinamide]
10 to 100	Cc1cnc(C(N)=O)cc1NC(=O)C1OC(C)(C(F)(F)F)C(C)C1c1ccc(F)c(F)c1OC1CC(O)C1 (centres unmarked) [Compound 203]
≥ 1000	C[C@H]1[C@@H](c2ccc(F)c(F)c2OCCN2CC3(CCOC3)C2)[C@H](C(=O)Nc2ccnc(C(=O)N3CC4(CCOC4)C3)c2)O[C@@]1(C)C(F)(F)F [Compound 123, (2R,3S,4S,5R)-3-(2-(2-(6-oxa-2-azaspiro[3.4]octan-2-yl)ethoxy)-3,4-difluorophenyl)-N-(2-(6-oxa-2-azaspiro[3.4]octane-2-carbonyl)pyridin-4-yl)-4,5-dimethyl-5-(trifluoromethyl)tetrahydrofuran-2-carboxamide]
100 to 1000	C[C@H]1[C@@H](c2ccc(F)c(F)c2OCC(CO)CO)[C@H](C(=O)Nc2ccnc(C(N)=O)c2)O[C@@]1(C)C(F)(F)F [Compound 91, 4-((2R,3S,4S,5R)-3-(3,4-difluoro-2-(3-hydroxy-2-(hydroxymethyl)propoxy)phenyl)-4,5-dimethyl-5-(trifluoromethyl)tetrahydrofuran-2-carboxamido)picolinamide]
10 to 100	C=C(/C=C/Oc1c([C@H]2[C@H](C(=O)Nc3ccnc(C(N)=O)c3)O[C@@](C)(C(F)(F)F)[C@H]2C)ccc(F)c1F)C(F)(F)F [Compound 172, 4-((2R,3S,4S,5R)-3-(3,4-difluoro-2-(((E)-3-(trifluoromethyl)buta-1,3-dien-1-yl)oxy)phenyl)-4,5-dimethyl-5-(trifluoromethyl)tetrahydrofuran-2-carboxamido)picolinamide]
10 to 100	COc1c([C@H]2[C@H](C(=O)Nc3ccnc(C(=O)N4CC5(CCCN5C)C4)c3)O[C@@](C)(C(F)(F)F)[C@H]2C)ccc(F)c1F [Compound 270, (2R,3S,4S,5R)-3-(3,4-difluoro-2-methoxyphenyl)-4,5-dimethyl-N-(2-(5-methyl-2,5-diazaspiro[3.4]octane-2-carbonyl)pyridin-4-yl)-5-(trifluoromethyl)tetrahydrofuran-2-carboxamide]
10 to 100	COc1c([C@H]2[C@H](C(=O)Nc3ccnc(C(=O)NC[C@H]4CCCCN4)c3)O[C@@](C)(C(F)(F)F)[C@H]2C)ccc(F)c1F [Compound 251, 4-((2R,3S,4S,5R)-3-(3,4-difluoro-2-methoxyphenyl)-4,5-dimethyl-5-(trifluoromethyl)tetrahydrofuran-2-carboxamido)-N-(((R)-piperidin-2-yl)methyl)picolinamide]
10 to 100	C[C@]1(C(F)(F)F)C[C@@H](c2ccc(OC(F)(F)F)cc2Cl)[C@H](C(=O)Nc2ccnc(C(N)=O)c2)O1 (stereo in doubt) [Compound 151, rel-4-((2R,3S,5R)-3-(2-chloro-4-(trifluoromethoxy)phenyl)-5-methyl-5-(trifluoromethyl)tetrahydrofuran-2-carboxamido) picolinamide]
< 10	CNC(=O)c1cc(NC(=O)[C@@H]2O[C@@](C)(C(F)(F)F)[C@@H](C)[C@H]2c2ccc(F)c(F)c2OCCO)ccn1 [Compound 38, 4-((2R,3S,4S,5R)-3-(3,4-difluoro-2-(2-hydroxyethoxy)phenyl)-4,5-dimethyl-5-(trifluoromethyl)tetrahydrofuran-2-carboxamido)-N-methylpicolinamide]
10 to 100	COc1c([C@H]2[C@H](C(=O)Nc3ccnc(C(=O)N[C@@H]4CNC[C@H](C)C4)c3)O[C@@](C)(C(F)(F)F)[C@H]2C)ccc(F)c1F [Compound 252, 4-((2R,3S,4S,5R)-3-(3,4-difluoro-2-methoxyphenyl)-4,5-dimethyl-5-(trifluoromethyl)tetrahydrofuran-2-carboxamido)-N-((3S,5R)-5-methylpiperidin-3-yl)picolinamide]
< 10	CN[C@H]1CN(C(=O)c2cc(NC(=O)[C@@H]3O[C@@](C)(C(F)(F)F)[C@@H](C)[C@H]3c3ccc(F)c(F)c3OC)ccn2)C[C@H]1OC [Compound 297, (2R,3S,4S,5R)-3-(3,4-difluoro-2-methoxyphenyl)-N-(2-((3R,4S)-3-methoxy-4-(methylamino)pyrrolidine-1-carbonyl)pyridin-4-yl)-4,5-dimethyl-5-(trifluoromethyl)tetrahydrofuran-2-carboxamide]
10 to 100	C[C@H]1[C@@H](c2ccc(F)c(F)c2OC[C@H]2CC[C@H]2O)[C@H](C(=O)Nc2ccnc(C(N)=O)c2)O[C@@]1(C)C(F)(F)F (relative stereo) [Compound 99, rel-4-((2R*,3S*,4S*,5R*)-3-(3,4-difluoro-2-(((1R,2R)-2-hydroxycyclobutyl)methoxy)phenyl)-4,5-dimethyl-5-(trifluoromethyl)tetrahydrofuran-2-carboxamido)picolinamide]
10 to 100	C[C@H]1[C@@H](c2ccc(F)c(F)c2OCCN2CCC2)[C@H](C(=O)Nc2ccnc(C(N)=O)c2)O[C@@]1(C)C(F)(F)F [Compound 54, 4-((2R,3S,4S,5R)-3-(2-(2-(azetidin-1-yl)ethoxy)-3,4-difluorophenyl)-4,5-dimethyl-5-(trifluoromethyl)tetrahydrofuran-2-carboxamido)picolinamide]
< 10	COc1c([C@H]2[C@H](C(=O)Nc3ccnc(C(=O)N(C)CCN(C)C)c3)O[C@@](C)(C(F)(F)F)[C@H]2C)ccc(F)c1F [Compound 273, 4-((2R,3S,4S,5R)-3-(3,4-difluoro-2-methoxyphenyl)-4,5-dimethyl-5-(trifluoromethyl)tetrahydrofuran-2-carboxamido)-N-(2-(dimethylamino)ethyl)-N-methylpicolinamide]

SMILES	IC50 [nM]
COc1c([C@H]2[C@H](C(=O)Nc3ccnc(C(=O)N4CC5CC(C4)N5)c3)O[C@@](C)(C(F)(F)F)[C@H]2C)ccc(F)c1F [Compound 239, (2R,3S,4S,5R)-N-(2-(3,6-diazabicyclo[3.1.1]heptane-3-carbonyl)pyridin-4-yl)-3-(3,4-difluoro-2-methoxyphenyl)-4,5-dimethyl-5-(trifluoromethyl)tetrahydrofuran-2-carboxamide]	< 10
CC(C)C(COc1c([C@H]2[C@H](C(=O)Nc3ccnc(C(N)=O)c3)O[C@@](C)(C(F)(F)F)[C@H]2C)ccc(F)c1F)=NO (single isomer, unassigned) [Compound 187, rel-4-((2R*,3S*,4S*,5R*)-3-(3,4-difluoro-2-(2-(hydroxyimino)-3-methylbutoxy)phenyl)-4,5-dimethyl-5-(trifluoromethyl)tetrahydrofuran-2-carboxamido)picolinamide]	< 10
